{"source": "patent US20190076461A1", "about": "“MATERIALS AND METHODS FOR TREATING HYPOXIC CONDITIONS” (MitoGenetics, LLC, priority 2016, published 2019)", "assay_type_in_all_cases": "cell-based", "settings_in_all_cases": "24 hour incubation, vs vehicle treated cells", "key": {"[1]": {"test_system": "MOCS2 (molybdenum cofactor synthesis 2)", "assay": "DNA microarray of embryonic chicken liver cells incubated with selenomethionine: MOCS2 expression", "description": "(§1) Embryonic chicken kidney and liver cells were obtained from Charles River Laboratories, Inc. Cells were cultured in 75 cc flasks. Each flask represented a treatment group as follows: Control, 1 nM selenomethionine. Treatments consisted of 24 hour incubations with selenomethionine. After that period, samples were processed for microarray analysis. Experiments were performed in triplicate. DNA microarray analyses were performed using a system provided by Agilent. Arrays included four arrays per chip (Agilent 4×44K chip). Total RNA was reverse transcribed (1000 ng) using T7 primers and labeled and transcribed using Cyanine-3 dye. Each array was hybridized with at least 1.65 μg of labeled cRNA at 65° C. for 18 hours. Arrays were scanned using an Agilent array scanner. The microarray platform can determine a minimum of a 1.5 fold change in gene expression. Fold changes between homozygous ZDF rats fed potosaccharide for 28 days vs homozygous ZDF rats fed an equivalent amount of vehicle (control) were examined. In addition, gene expression was measured in heterozygous ZDF (lean rats) fed with vehicle only and compared to gene expression in homozygous ZDF control rats. Fold changes were used to calculate a percent restoration by using the fold changes between homozygous ZDF rats fed potosaccharide and lean control rats."}, "[2]": {"test_system": "COX7A2 (cytochrome c oxidase subunit VIIa polypeptide 2)", "assay": "DNA microarray of embryonic chicken liver cells incubated with selenomethionine: COX7A2 expression", "description": "as §1"}, "[3]": {"test_system": "COX8A (cytochrome c oxidase subunit VIIIA)", "assay": "DNA microarray of embryonic chicken liver cells incubated with selenomethionine: COX8A expression", "description": "as §1"}, "[4]": {"test_system": "COX19 (COX19 cytochrome c oxidase assembly homolog)", "assay": "DNA microarray of embryonic chicken liver cells incubated with selenomethionine: COX19 expression", "description": "as §1"}, "[5]": {"test_system": "ATOX1 (ATX1 antioxidant protein 1 homolog)", "assay": "DNA microarray of embryonic chicken liver cells incubated with selenomethionine: ATOX1 expression", "description": "as §1"}, "[6]": {"test_system": "COX10 (COX10 homolog, cytochrome c oxidase assembly protein, heme A: farnesyltransferase)", "assay": "DNA microarray of embryonic chicken liver cells incubated with selenomethionine: COX10 expression", "description": "as §1"}}}
{"smiles": "C[Se]CC[C@H](N)C(=O)O", "note": "[selenomethione, L-selenomethionine]", "values": [{"measurement": "Fold Change (1 nM Se vs Control), MOCS2", "setting": "[1]", "value": 2.2, "unit": "fold"}, {"measurement": "Fold Change (1 nM Se vs Control), COX7A2", "setting": "[2]", "value": 2.2, "unit": "fold"}, {"measurement": "Fold Change (1 nM Se vs Control), COX8A", "setting": "[3]", "value": 1.5, "unit": "fold"}, {"measurement": "Fold Change (1 nM Se vs Control), COX19", "setting": "[4]", "value": 1.3, "unit": "fold"}, {"measurement": "Fold Change (1 nM Se vs Control), ATOX1", "setting": "[5]", "value": 1.4, "unit": "fold"}, {"measurement": "Fold Change (1 nM Se vs Control), COX10", "setting": "[6]", "value": 1.4, "unit": "fold"}]}
